Some test systems named below: SK-OV-3 ovarian; SNB-75 CNS; CCRF-CEM leukemia; A549 NSCLC; OVCAR-3 ovarian; NCI-H226 lung; UACC-257 melanoma; 786-0 renal; UACC-62 melanoma; HCT-15 colon.
Assay in all cases: NCI anticancer screen, dose series, 48 h

The structures appear in SMILES notation.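 48-hour exposure; five concentrations; linearly interpolated endpoints. Abbreviation: GI50, concentration required for 50% inhibition of growth. The concentration for full growth arrest is given as TGI.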

With `COc1cccc(NC(=O)c2sc3nc(C)c(C(O)c4ccccc4)cc3c2N)c1` (stereo not given), the GI50 with SK-OV-3 ovarian is 0.658 µM; with SNB-75 CNS, 0.174 µM; in the assay on CCRF-CEM leukemia, 0.219 µM; with A549 NSCLC it was 0.402 µM; with OVCAR-3 ovarian it was 0.255 µM; in the assay with NCI-H226 lung, 2.03 µM. Besides, the GI50 in the assay with UACC-257 melanoma was 2.72 µM; in the assay on 786-0 renal it was 0.665 µM; in the assay with UACC-62 melanoma it was 0.503 µM; with HCT-15 colon, 0.0924 µM. In addition, the TGI in the assay on SK-OV-3 ovarian was 23.8 µM; in the assay with SNB-75 CNS it was 4.55 µM; in the assay with CCRF-CEM leukemia it was over 79.7 µM; in the assay on A549 NSCLC it was 21 µM; in the assay with OVCAR-3 ovarian, 2.93 µM; with NCI-H226 lung, 23.7 µM. The TGI in the assay on UACC-257 melanoma worked out at 35.1 µM; in the assay with 786-0 renal, 26.6 µM; in the assay with UACC-62 melanoma it was 17.3 µM; in the assay with HCT-15 colon, 12.4 µM.

On to `Cc1cc(N2CCOCC2)nc(N[C@@H]2CCC[C@H](Nc3ccnc4cc(Cl)ccc34)C2)n1`, for which the GI50 in the assay on SK-OV-3 ovarian was 3.44 µM; with SNB-75 CNS, 1.6 µM; with CCRF-CEM leukemia, 3.31 µM; in the assay with A549 NSCLC, 3.31 µM; with OVCAR-3 ovarian, 2.83 µM; in the assay on NCI-H226 lung, 4.89 µM. The GI50 with UACC-257 melanoma was 2.14 µM; with 786-0 renal it was 1.73 µM; with UACC-62 melanoma, 1.82 µM; in the assay with HCT-15 colon it was 1.4 µM. Also, the TGI with SK-OV-3 ovarian is 11.9 µM; in the assay with SNB-75 CNS it was 4.01 µM; with CCRF-CEM leukemia, 9.25 µM; in the assay on A549 NSCLC, 8.56 µM; with OVCAR-3 ovarian it was 8.62 µM; with NCI-H226 lung, 17.1 µM. Further, the TGI with UACC-257 melanoma was 3.89 µM; in the assay with 786-0 renal, 3.27 µM; in the assay with UACC-62 melanoma, 3.43 µM; in the assay on HCT-15 colon, 3.54 µM.

As for `COCc1cc(C(=O)Nc2cc([C@H]3CC[C@@H](OC(=O)NC(C)C)C3)[nH]n2)n(C)n1`, the GI50 in the assay with SK-OV-3 ovarian is 28.6 µM; with SNB-75 CNS it was 3.86 µM; in the assay with CCRF-CEM leukemia, 4.78 µM; in the assay on A549 NSCLC, 13 µM; in the assay with OVCAR-3 ovarian it was 2.55 µM; with NCI-H226 lung, 5.63 µM. Also, the GI50 was 25.9 µM in the assay on UACC-257 melanoma, 11.2 µM in the assay with 786-0 renal, 11.5 µM in the assay on UACC-62 melanoma and 22.8 µM with HCT-15 colon. Besides, the TGI with SK-OV-3 ovarian was 96.2 µM; in the assay with SNB-75 CNS, 22.4 µM; with CCRF-CEM leukemia, 70.2 µM; in the assay on A549 NSCLC, over 100 µM; with OVCAR-3 ovarian, 30.6 µM; in the assay with NCI-H226 lung, 76.5 µM. Moreover, the TGI is over 100 µM in the assay with UACC-257 melanoma, over 100 µM in the assay with 786-0 renal, 36.4 µM in the assay with UACC-62 melanoma and over 100 µM in the assay with HCT-15 colon.

Turning to `COc1cc(-c2cc(O)c(-c3ccc4ccccc4n3)c(=O)[nH]2)cc(OC)c1OC`, the TGI in the assay with SK-OV-3 ovarian was over 73.2 µM; in the assay with SNB-75 CNS, 46.1 µM; in the assay on CCRF-CEM leukemia it was over 30.6 µM; in the assay on A549 NSCLC, over 95 µM; in the assay with OVCAR-3 ovarian it was over 48.9 µM; in the assay on NCI-H226 lung, over 77.6 µM. Further, the TGI in the assay with UACC-257 melanoma was over 100 µM; in the assay on 786-0 renal, over 69.6 µM; in the assay on UACC-62 melanoma, over 67.9 µM; with HCT-15 colon, over 100 µM.

For `CC(=O)C1=C(O)C=C2Oc3c(C(=O)/C=C/c4c(Cl)cccc4Cl)c(O)c(C)c(O)c3[C@]2(C)C1=O`, the GI50 is 2.57 µM in the assay with SK-OV-3 ovarian; 2.12 µM in the assay on SNB-75 CNS; 0.573 µM in the assay with CCRF-CEM leukemia; 1.58 µM in the assay with A549 NSCLC; 1.12 µM in the assay on OVCAR-3 ovarian; 2.47 µM with NCI-H226 lung. Also, the GI50 was 2.01 µM in the assay on UACC-257 melanoma, 1.71 µM in the assay on 786-0 renal, 0.677 µM with UACC-62 melanoma and 0.668 µM in the assay on HCT-15 colon. Besides, the TGI in the assay with SK-OV-3 ovarian is 7.4 µM; in the assay on SNB-75 CNS, 4.76 µM; in the assay with CCRF-CEM leukemia, 5.43 µM; with A549 NSCLC, 5.53 µM; with OVCAR-3 ovarian, 4.22 µM; in the assay on NCI-H226 lung it was 5.14 µM. Moreover, the TGI was determined as 6.82 µM in the assay with UACC-257 melanoma, 5.44 µM with 786-0 renal, 2.8 µM in the assay on UACC-62 melanoma and 2.94 µM in the assay on HCT-15 colon.

As for `NCCCCCCCn1c2c(c3ccccc3c1=O)C(=O)c1ccccc1-2`, the GI50 in the assay with SK-OV-3 ovarian was 2.96 µM; in the assay with SNB-75 CNS it was 2.17 µM; in the assay with CCRF-CEM leukemia, 0.648 µM; in the assay with A549 NSCLC, 3.27 µM; with OVCAR-3 ovarian, 1.86 µM; with NCI-H226 lung it was 8.37 µM. The GI50 in the assay with UACC-257 melanoma is 2.19 µM; with 786-0 renal, 1.38 µM; in the assay on UACC-62 melanoma, 2.01 µM; with HCT-15 colon, 1.53 µM. Moreover, the TGI with SK-OV-3 ovarian was 9.24 µM; with SNB-75 CNS it was 4.55 µM; with CCRF-CEM leukemia, 2.19 µM; in the assay with A549 NSCLC, 18.3 µM; in the assay with OVCAR-3 ovarian, 4.1 µM; in the assay with NCI-H226 lung, 22.2 µM. Further, the TGI amounted to 4.09 µM with UACC-257 melanoma, 2.75 µM in the assay with 786-0 renal, 3.85 µM in the assay on UACC-62 melanoma and 5.2 µM in the assay on HCT-15 colon.

Source of the values: PubChem BioAssay (NCI).
